Measurements taken from patent US12497411B2, “Muscarinic acetylcholine receptor subtype 4 antagonists in the treatment of anemia” (COLD SPRING HARBOR LABORATORY, priority 2019, dated 2025).

Key:
[1] = test system: Human CD34+ hematopoietic stem and progenitor cells; experiment: Human CD34+ cell culture and counting; type: cell-based; conditions: human CD34+ HSPC culture, oxyphenonium bromide (200 μM)
Procedure: Human CD34+ hematopoietic stem and progenitor cells (HSPCs) were cultured in StemSpan™ SFEM medium containing rhSCF (20 ng/ml), rhIL-3 (5 ng/ml) and EPO (1 U/ml) with various concentrations of dexamethasone and oxyphenonium. Total numbers of cells were counted using a flow-cytometer. For colony formation assay, day 8 cultured cells were plated into methylcellulose medium MethoCult™ H4034 Optimum and BFU-E colonies were counted after 13 days.

[2] = test system: Mouse BFU-Es; experiment: Primary mouse BFU-E culture assay (cell expansion); type: cell-based
Procedure: (§1) Primary mouse BFU-Es were isolated from mouse embryonic day 14.5 (E14.5) fetal liver and cultured in StemSpan serum-free expansion medium, and the numbers of cells formed were counted during culture. BFU-Es were infected with either viruses encoding control shRNA or viruses encoding shRNAs targeting Chrm4, and numbers of GFP+ cells formed during culture were counted. DMSO or 25 mg/kg oxyphenonium bromide was intraperitoneally injected into the hemolysis mouse model, Mx1-cre Srsf2 P95H/WT MDS mouse model, and aging mouse model. Complete blood count (CBC) was performed after compound injection. CREB ChIP-Seq was performed on BFU-Es after culture with 100 μM oxyphenonium bromide for 45 minutes. RNA-Seq was performed in BFU-Es after being cultured with DMSO or oxyphenonium bromide for 3 days.
BFU-Es were isolated from mouse embryonic day 14.5 fetal liver using fluorescence-activated cell sorting (FACS) method previously described (Flygare et al., Blood 117, 3435-3444 (2011)). BFU-Es were cultured in StemSpan SFEM II medium containing rmSCF (100 ng/ml), EPO (2 U/ml), rmIGF-1 (40 ng/ml), dexamethasone (1 nmol/ml or 10 nmol/ml), oxyphenonium bromide ([…]), and orphenadrine citrate (1 μmol/ml).
BFU-Es were isolated from mouse embryonic day 14.5 fetal liver using fluorescence-activated cell sorting (FACS) method. BFU-Es were cultured in StemSpan SFEM II medium containing rmSCF (100 ng/ml), EPO (2 U/ml), rmIGF-1 (40 ng/ml), dexamethasone (1 nM), together with either DMSO, PCS1055 (5 nM), or PD102807 (3 nM). Numbers of cell formed were counted during in vitro culture.
FIGS. 7 and 8 show the results of the primary BFU-E culture assay. […] Highly purified BFU-Es were isolated as lin-Ter-119-CD16/CD32-Sca-1-CD41-c-Kit+CD71/Cd24a^10% low population using the fluorescence-activated cell sorting (FACS) method. BFU-Es were cultured in medium containing rmSCF, EPO, and rmIGF-1, in the presence of PD102807 or Compounds A-K at indicated concentrations.

[3] = test system: phosphorylated CREB in BFU-Es; experiment: Phospho-CREB immunofluorescence; type: cell-based, mouse; conditions: 100 μM oxyphenonium, 45 to 60 min
Procedure: Freshly isolated BFU-Es were serum starved for 1 hour and treated with either DMSO or 100 μM oxyphenonium for 45 to 60 min. 10^4 cells were collected on Poly L-Lysine coated slides using cytospin. Cells were fixed with 2% paraformaldehyde for 15 min, followed with permeabilization using 0.1% Triton X-100 for 15 min and with 2% BSA solution block for 30 min. Cells were incubated with phospho-CREB antibody (phospho […], Abeam, ab32096, 1:250) in 2% BSA for 1 hour and then incubated with FITC conjugated goat anti-mouse secondary antibody (Abcam, ab97022, 1:500) and FITC conjugated goat anti-rabbit secondary antibody (Abcam, ab97050, 1:500) in 2% BSA solution for 30 min. Cells were then incubated with DAPI for 5 min and then mounted with mounting solution.

[4] = test system: Mouse BFU-Es; experiment: Ter119 antibody staining, flow cytometry; type: cell-based; conditions: with or without oxyphenonium bromide, after 12 days of culture
[5] = test system: Mouse BFU-Es; experiment: BFU-E colony formation assay; type: cell-based; conditions: Day 6 cultured BFU-Es plated on methylcellulose, colonies counted 9 days later
[6] = test system: hemolysis, MDS, and aging mouse models; experiment: Hemolysis, MDS and aging anemia mouse models (oxyphenonium bromide); type: in vivo; conditions: 25 mg/kg intraperitoneally
Procedure: as §1
4-6 weeks old C57bl/6 mice were intraperitoneally injected with either control DMSO or compound every day for 3 days. On day 4, mice were intraperitoneally injected with 60 mg/kg PHZ. Mice were then intraperitoneally injected with either compound or control DMSO every day for another 3 days. Peripheral blood samples were collected retro-orbitally using heparinized capillary tubes in blood collection tubes with K2-EDTA. CBC was performed using Hemavet® 950. […]

[7] = target: T1, human recombinant CHRM1 receptor (Homo sapiens, UniProt P11229); experiment: Radioligand binding assay, CHRM1; conditions: [3H]pirenzepine (2 nM), CHO cell membranes, 60 minutes at room temperature; read-out: Ki M1
T1 construct: expressed in transfected cells; host or cells: CHO cells (membranes)
T1 sequence (P11229 1-460): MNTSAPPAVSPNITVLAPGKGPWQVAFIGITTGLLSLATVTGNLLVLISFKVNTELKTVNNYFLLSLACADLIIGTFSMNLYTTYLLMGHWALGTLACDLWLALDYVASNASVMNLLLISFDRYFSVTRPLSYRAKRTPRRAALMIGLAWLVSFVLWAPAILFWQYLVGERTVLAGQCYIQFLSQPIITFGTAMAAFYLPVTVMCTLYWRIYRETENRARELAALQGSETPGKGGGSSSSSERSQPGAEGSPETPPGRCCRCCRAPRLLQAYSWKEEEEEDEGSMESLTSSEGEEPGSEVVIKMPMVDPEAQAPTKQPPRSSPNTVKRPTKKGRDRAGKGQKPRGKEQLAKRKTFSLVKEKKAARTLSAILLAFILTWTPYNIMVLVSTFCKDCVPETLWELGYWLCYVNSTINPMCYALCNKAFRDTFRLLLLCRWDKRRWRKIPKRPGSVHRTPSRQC
Procedure: (§2) PD102807 and Compounds A-K at concentrations of 1×10^−9 M, 1×10^−8 M, 1×10^−7 M, 1×10^−6 M, and 1×10^−5 M were tested in standard binding assays with radioligands and cell membranes with receptors. Compound binding was calculated as a percent inhibition of the binding of a radioactively labeled ligand specific for each target, and the Ki values were determined. For CHRM1, the binding assay was performed using [^3H]pirenzepine (2 nM) as a radioligand and membranes of CHO cells with human recombinant CHRM1 receptor. The incubation time was 60 minutes at room temperature. For CHRM2, the binding assay was performed using [^3H]AF-DX 384 (2 nM) as a radioligand and membranes of CHO cells with human recombinant CHRM2 receptor. The incubation time was also 60 minutes at room temperature. For CHRM3, the binding assay was performed using [^3H]4-DAMP (0.2 nM) as a radioligand and membranes of CHO cells with human recombinant CHRM3 receptor. The incubation time was also 60 minutes at room temperature. For CHRM4, the binding assay was performed using [^3H]4-DAMP (0.2 nM) as a radioligand and membranes of CHO cells with human recombinant CHRM4 receptor. The incubation time was also 60 minutes at room temperature. For CHRM5, the binding assay was performed using [^3H]4-DAMP (0.3 nM) as a radioligand and membranes of CHO cells with human recombinant CHRM5 receptor. The incubation time was also 60 minutes at room temperature.

[8] = target: T2, human recombinant CHRM3 receptor (Homo sapiens, UniProt P20309); experiment: Radioligand binding assay, CHRM3; conditions: [3H]4-DAMP (0.2 nM), CHO cell membranes, 60 minutes at room temperature; read-out: Ki M3
T2 construct: expressed in transfected cells; host or cells: CHO cells (membranes)
T2 sequence (P20309 whole entry): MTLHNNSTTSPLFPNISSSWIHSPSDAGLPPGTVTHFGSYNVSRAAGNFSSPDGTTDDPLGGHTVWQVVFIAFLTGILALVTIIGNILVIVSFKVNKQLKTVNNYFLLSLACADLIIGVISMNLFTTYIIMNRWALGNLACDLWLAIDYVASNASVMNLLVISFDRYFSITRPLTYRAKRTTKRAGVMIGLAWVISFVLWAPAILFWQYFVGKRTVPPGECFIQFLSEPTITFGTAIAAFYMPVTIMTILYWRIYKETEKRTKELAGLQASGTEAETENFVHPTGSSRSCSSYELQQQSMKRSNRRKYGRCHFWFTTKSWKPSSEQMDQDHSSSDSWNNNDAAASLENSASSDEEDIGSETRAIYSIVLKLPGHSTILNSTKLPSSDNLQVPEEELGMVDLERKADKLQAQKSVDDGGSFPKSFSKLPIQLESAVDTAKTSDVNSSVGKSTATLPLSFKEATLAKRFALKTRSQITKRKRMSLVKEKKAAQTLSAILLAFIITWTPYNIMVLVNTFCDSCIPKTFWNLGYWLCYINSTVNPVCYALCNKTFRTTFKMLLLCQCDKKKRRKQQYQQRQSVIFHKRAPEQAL
Procedure: as §2

[9] = target: T3, human recombinant CHRM2 receptor (Homo sapiens, UniProt P08172); experiment: Radioligand binding assay, CHRM2; conditions: [3H]AF-DX 384 (2 nM), CHO cell membranes, 60 minutes at room temperature; read-out: Ki M2
T3 construct: expressed in transfected cells; host or cells: CHO cells (membranes)
T3 sequence (P08172 1-466): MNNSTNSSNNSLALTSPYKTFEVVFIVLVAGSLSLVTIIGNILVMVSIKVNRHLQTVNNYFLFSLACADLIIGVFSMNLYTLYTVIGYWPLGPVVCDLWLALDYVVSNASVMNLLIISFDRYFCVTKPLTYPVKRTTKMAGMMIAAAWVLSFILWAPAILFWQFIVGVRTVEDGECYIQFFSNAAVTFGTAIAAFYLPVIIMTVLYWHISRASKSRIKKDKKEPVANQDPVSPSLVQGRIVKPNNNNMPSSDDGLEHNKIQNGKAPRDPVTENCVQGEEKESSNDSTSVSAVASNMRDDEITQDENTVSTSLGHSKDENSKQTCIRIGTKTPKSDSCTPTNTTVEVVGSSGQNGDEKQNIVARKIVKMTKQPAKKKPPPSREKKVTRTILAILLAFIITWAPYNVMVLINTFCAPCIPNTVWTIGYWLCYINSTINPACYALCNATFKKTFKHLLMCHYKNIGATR
Procedure: as §2

[10] = Pharmacokinetic profile (plasma) and brain penetration assay; type: in vivo, mouse; conditions: mice, intraperitoneal injection, plasma and brain by LC-MS/MS
Procedure: PD102807 and Compounds A and B were intraperitoneally injected into mice. Blood was collected at each time point, and transferred tubes containing anticoagulant were centrifuged to obtain plasma. Brain samples were collected each time point and then quick frozen in liquid nitrogen and kept at −75±15° C. Brain samples were homogenized. Concentrations of PD102807 and Compound A and B in the plasma and brain samples were analyzed using the LC-MS/MS method. […] Compound G was intraperitoneally injected into mice. Blood was collected at each time point, and transferred tubes containing anticoagulant were centrifuged to obtain plasma. Brain samples were collected each time point and then quick frozen in liquid nitrogen and kept at −75±15° C. Brain samples were homogenized. Concentrations of Compound G in the plasma and brain samples were analyzed using the LC-MS/MS method.

[11] = target: T4, CHRM4 (Homo sapiens, UniProt P08173); experiment: Radioligand binding assay, CHRM4; design: expressed in transfected cells; host or cells: CHO cells (membranes); conditions: [3H]4-DAMP (0.2 nM), CHO cell membranes, 60 minutes at room temperature; read-out: Ki M4
T4 sequence (P08173 1-479): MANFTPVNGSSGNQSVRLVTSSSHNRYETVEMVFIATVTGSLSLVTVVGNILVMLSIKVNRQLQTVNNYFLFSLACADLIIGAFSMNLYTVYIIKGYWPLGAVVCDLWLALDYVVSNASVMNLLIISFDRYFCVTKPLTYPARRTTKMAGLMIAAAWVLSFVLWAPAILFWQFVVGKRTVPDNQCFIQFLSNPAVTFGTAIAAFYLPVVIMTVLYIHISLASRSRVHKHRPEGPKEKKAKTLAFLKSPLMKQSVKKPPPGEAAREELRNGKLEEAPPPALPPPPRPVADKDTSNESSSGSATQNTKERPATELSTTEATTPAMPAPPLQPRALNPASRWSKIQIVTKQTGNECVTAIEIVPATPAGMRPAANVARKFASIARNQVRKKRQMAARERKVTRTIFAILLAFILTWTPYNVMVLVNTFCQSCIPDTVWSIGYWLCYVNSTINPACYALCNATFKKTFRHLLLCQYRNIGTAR
Procedure: as §2

Structure (SMILES) | expansion of erythroid cells [1] [fold] | production of more erythrocytes from BFU-E ([2]; 100 μM oxyphenonium bromide, vs culture without compound) [fold] | BFU-E expansion (test of GPCR agonists and antagonists) ([2]; mouse BFU-E culture) | nuclear localization of phosphorylated CREB [3] | percentage of Ter119+ differentiated cells [4] | formation of BFU-E colonies [5] [fold] | correction of anemia in vivo [6] | Ki [7] [µM] | Ki [8] [µM] | Ki [9] [µM] | brain penetration in comparison to PD102807 [10] | Ki [11] [µM]
CC[N+](C)(CC)CCOC(=O)C(O)(c1ccccc1)C1CCCCC1 (stereo not drawn) [oxyphenonium bromide] | 2 to 4 | ~10 | triggered BFU-E expansion | increase in nuclear localization | no difference | ~2 | corrects anemia in vivo |  |  |  |  | 
CCOC(=O)c1c(C)n(C)c2ccc(OC)c(C[N+]3(C)CCc4cc(OC)ccc4C3)c12.[I-] (stereo not drawn) [Compound G, 2-((3-(ethoxycarbonyl)-5-methoxy-1,2-dimethyl-1H-indol-4-yl)methyl)-6-methoxy-2-methyl-1,2,3,4-tetrahydroisoquinolin-2-ium Iodide] |  |  |  |  |  |  |  | 4.4 | 0.4 | 0.76 | reduced brain penetration | 1.5
